The values below come from patent US11198692B2, “Dihydro-pyrrolo-pyridine derivatives” (Pfizer Inc., priority 2017, dated 2021).

The structures appear in SMILES notation.

The assay deals with T1, Human M4 receptors (Homo sapiens, UniProt P08173).
T1 construct: expressed in transfected cells
T1 sequence (P08173 1-479): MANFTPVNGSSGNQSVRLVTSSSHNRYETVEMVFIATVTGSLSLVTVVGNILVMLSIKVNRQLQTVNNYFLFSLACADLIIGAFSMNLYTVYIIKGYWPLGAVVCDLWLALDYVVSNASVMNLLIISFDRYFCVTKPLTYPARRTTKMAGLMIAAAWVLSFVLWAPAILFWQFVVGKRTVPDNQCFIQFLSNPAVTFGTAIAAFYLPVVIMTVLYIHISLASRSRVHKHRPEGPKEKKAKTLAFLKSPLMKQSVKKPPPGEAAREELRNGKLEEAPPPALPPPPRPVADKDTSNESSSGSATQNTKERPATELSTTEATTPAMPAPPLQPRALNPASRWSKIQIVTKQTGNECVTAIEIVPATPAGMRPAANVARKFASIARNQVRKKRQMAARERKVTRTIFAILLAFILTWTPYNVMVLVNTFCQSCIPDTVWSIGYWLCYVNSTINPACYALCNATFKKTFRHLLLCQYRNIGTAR
The experiment in a line: M4 PAM cAMP assay (GloSensor). It is filed as cell-based. The note with it: HEK293 GloSensor cells expressing hM4, with EC20 acetylcholine and isoproterenol, geometric mean of 2-4 determinations unless footnoted (b: >=5, c: single); for Emax: read-out: EC50 Mean Asymptote Maximum (%). The procedure: The M4 cAMP assay was designed to determine the potency and efficacy of muscarinic positive allosteric modulators (PAMs). Human M4 receptors were stably expressed in Human embryonic kidney (HEK293) cells expressed with the Promega GloSensor™ cAMP technology.
HEK293 GloSensor cells expressing hM4 cells were cultured in growth media containing DMEM with 10% FBS, 1% Penicillin/Streptomycin, 500 μg/mL G418, 200 μg/mL Hygomycin B, and 1% Glutamax. When cells had grown to 80%-90% confluency, cells were harvested and seeded at a density of 25,000 cells/40 μL well, in a 384 white walled plates (Becton Dickinson 356661). Plates were incubated at 37 degrees C. and 5% CO2 for use after 24 hours.
Compound Preparation for Activator Screen:
Test compounds were initially prepared as 100% DMSO stock solutions, then transferred and serially diluted in 384-well compound plates (Matrix #4325). Each compound was tested at 10 concentrations in duplicate per experiment. Compound plates are spotted with 0.2 μL/well activator at 400 times the final assay concentration. Positive and negative controls for the compound alone activator response was 10 μM acetylcholine (Sigma # A2661) and DMSO, respectively. EC20 of acetylcholine was also used to define PAM activities.
Promega GloSensor™reagent (Promega # E1291) had previously been aliquotted. For each experiment, a stock solution of GloSensor™ was thawed out and equilibration medium was prepared with 88% CO2-independent media (Invitrogen #18045088), 10% fetal bovine serum and 2% GloSensor™ cAMP Reagent stock solution. Stock solution was mixed. Culture media in cell plates was discarded, then replaced with 40 μL/well pre-warmed equilibration media, then incubated in the dark at room temperature for 2 hours. During the incubation, stimulation media containing agonist and EC20 acetylcholine was prepared. CO2-independent media containing 50 […] Isoproterenol representing an EC80 of b-adrenergic receptor activity (Sigma #16504, 400 times final concentration) and EC20 acetylcholine in 1.25% DMSO was added to all columns of the compound plate, with the exception of column 12 to allow for EC0 control. […] Compounds are now 5 times the final assay concentration. The plate was mixed using a plate agitator. At the end of the 2 hour GloSensor™ incubation, add 10 μL of the CO2-independent media containing agonist, EC20 acetylcholine and isoproterenol to the cell plate. Cell plate was then incubated for 10 minutes at room temperature, and then read using an EnVision plate reader (Perkin Elmer).
Data was exported from the EnVision plate reader. The percent effect for each well was determined using the mean values for the positive and negative controls on each plate for each read, specifically 100*(compound−negative control)/(positive control−negative control). Dose response curves were fitted to the compound percent effect data using a 4-parameter logistic fit model. Data was reported as EC50 and Emax, with the Emax as the maximum asymptote of the fitted dose response curve.

The mark [1] stands for this setting: Emax = maximum asymptote of fitted dose response curve.

`CNc1nc(C)c(C)c2c1CN(C(=O)CC1Cc3ccc(F)cc3C1)C2` (single isomer, unassigned) [Example 57, 1-[6,7-dimethyl-4-(methylamino)-1,3-dihydro-2H-pyrrolo[3,4-c]pyridin-2-yl]-2-(5-fluoro-2,3-dihydro-1H-inden-2-yl)ethanone] returned an EC50 of 30.9 nM. The Emax under setting [1] was determined as 97%.

Compound `CNc1nc(C)c(C)c2c1CN(C(=O)CC1CN(c3ccnc(C)c3)C1)C2` [Example 35, 1-[6,7-dimethyl-4-(methylamino)-1,3-dihydro-2H-pyrrolo[3,4-c]pyridin-2-yl]-2-[1-(2-methylpyridin-4-yl)azetidin-3-yl]ethanone] yielded a half-maximal effective concentration (EC50) of 13.6 nM. Moreover, under setting [1], the Emax was determined as 97.7%.

Regarding `CNc1nc(C)c(C)c2c1CN(C(=O)CC1CN(c3nncs3)C1)C2` [Example 37, 1-[6,7-dimethyl-4-(methylamino)-1,3-dihydro-2H-pyrrolo[3,4-c]pyridin-2-yl]-2-[1-(1,3,4-thiadiazol-2-yl)azetidin-3-yl]ethanone], a half-maximal effect (EC50) was put at 3.47 nM. In addition, under setting [1], the Emax turned out to be 93.5%.

The compound `CNc1nc(C)c(C)c2c1CN(C(=O)C[C@@H]1C[C@H]1c1ccc(C)nc1)C2` (racemic) [Example 45, 1-[6,7-dimethyl-4-(methylamino)-1,3-dihydro-2H-pyrrolo[3,4-c]pyridin-2-yl]-2-[trans-2-(6-methylpyridin-3-yl)cyclopropyl]ethanone] yielded an EC50 of 3.56 nM. Also, under setting [1], the Emax stood at 105%.

In turn, `Cc1c2c(c(=O)n(C)c1C)CN(C(=O)C[C@@H]1C[C@H]1c1cccnc1)C2` (single isomer, unassigned) [Example 27, 5,6,7-trimethyl-2-{[trans-2-(pyridin-3-yl)cyclopropyl]acetyl}-1,2,3,5-tetrahydro-4H-pyrrolo[3,4-c]pyridin-4-one] returned an EC50 of 9.99 nM. For the same compound, the “EC50 Mean Asymptote Maximum (%)” value under setting [1] amounted to 95.3%.

On to `Cc1ncc2c(c1C)CN(C(=O)CC1CN(c3cccnc3)C1)C2` [Example 52, 1-(6,7-dimethyl-1,3-dihydro-2H-pyrrolo[3,4-c]pyridin-2-yl)-2-[1-(pyridin-3-yl)azetidin-3-yl]ethanone], for which the response was half-maximal at 36.1 nM (EC50). In addition, under setting [1], the Emax amounted to 84.5%.

As for `CNc1nc(C)c(C)c2c1CN(C(=O)CC1CN(c3ccnc(C(F)(F)F)c3)C1)C2` [Example 34, 1-[6,7-dimethyl-4-(methylamino)-1,3-dihydro-2H-pyrrolo[3,4-c]pyridin-2-yl]-2-{1-[2-(trifluoromethyl)pyridin-4-yl]azetidin-3-yl}ethanone], the EC50 was 1.3 nM. Further, the Emax under setting [1] is 95.9%.

In turn, `Cc1nc(-c2cnn(C)c2)c2c(c1C)CN(C(=O)CC1CN(c3cccnc3)C1)C2` [Example 13, 1-[6,7-dimethyl-4-(1-methyl-1H-pyrazol-4-yl)-1,3-dihydro-2H-pyrrolo[3,4-c]pyridin-2-yl]-2-[1-(pyridin-3-yl)azetidin-3-yl]ethanone] displayed an EC50 of 20.6 nM. The Emax under setting [1] was 87.5%.

`CNc1nc(C)c(C)c2c1CN(C(=O)CCc1ccc(OC)cc1)C2` [Example 32, 1-[6,7-dimethyl-4-(methylamino)-1,3-dihydro-2H-pyrrolo[3,4-c]pyridin-2-yl]-3-(4-methoxyphenyl)propan-1-one] showed a 50% effective concentration (EC50) of 24.7 nM. The Emax under setting [1] was determined as 119%.

In turn, `CNc1nc(C)c(C)c2c1CN(C(=O)OC1Cc3cccnc3C1)C2` (stereo not drawn) [Example 6, 6,7-Dihydro-5H-cyclopenta[b]pyridin-6-yl 6,7-dimethyl-4-(methylamino)-1,3-dihydro-2H-pyrrolo[3,4-c]pyridine-2-carboxylate] displayed an EC50 of 50.6 nM. Also, the Emax under setting [1] stood at 92%.

The compound `COCc1nc(C)c(C)c2c1CN(C(=O)CC1CN(c3cccnc3)C1)C2` [Example 54, 1-[4-(methoxymethyl)-6,7-dimethyl-1,3-dihydro-2H-pyrrolo[3,4-c]pyridin-2-yl]-2-[1-(pyridin-3-yl)azetidin-3-yl]ethanone] came in with an EC50 of 153 nM. The Emax under setting [1] worked out at 95.8%.

For the compound `Cc1c2c(c(=O)n(C)c1C)CN(C(=O)C[C@@H]1C[C@H]1c1cccnc1)C2` (single isomer, unassigned) [Example 26, 5,6,7-trimethyl-2-{[trans-2-(pyridin-3-yl)cyclopropyl]acetyl}-1,2,3,5-tetrahydro-4H-pyrrolo[3,4-c]pyridin-4-one], the midpoint of the response, the EC50, lay at 2140 nM. For the same compound, under setting [1], the Emax amounted to 90.8%.

With `CNc1nc(C)c(C)c2c1CN(C(=O)C1CC1)C2` [Example 58, cyclopropyl[6,7-dimethyl-4-(methylamino)-1,3-dihydro-2H-pyrrolo[3,4-c]pyridin-2-yl]methanone], the EC50 was 95.2 nM. The Emax under setting [1] stood at 96.2%.

In turn, `CNc1nc(C)c(C)c2c1CN(C(=O)CCc1cn[nH]c1)C2` [Example 38, 1-[6,7-dimethyl-4-(methylamino)-1,3-dihydro-2H-pyrrolo[3,4-c]pyridin-2-yl]-3-(1H-pyrazol-4-yl)propan-1-one] showed an EC50 of 13.8 nM. Moreover, the Emax under setting [1] worked out at 102%.

In turn, `CNc1nc(C)c(C)c2c1CN(C(=O)C[C@@H]1C[C@H]1c1ccc(C)nc1)C2` (single isomer, unassigned) [Example 46, 1-[6,7-dimethyl-4-(methylamino)-1,3-dihydro-2H-pyrrolo[3,4-c]pyridin-2-yl]-2-[trans-2-(6-methylpyridin-3-yl)cyclopropyl]ethanone] registered an EC50 of more than 10000 nM.

For the compound `CNc1nc(C)c(C)c2c1CN(C(=O)C[C@@H]1C[C@H]1c1ccc(C)nc1)C2` (single isomer, unassigned) [Example 47, 1-[6,7-dimethyl-4-(methylamino)-1,3-dihydro-2H-pyrrolo[3,4-c]pyridin-2-yl]-2-[trans-2-(6-methylpyridin-3-yl)cyclopropyl]ethanone], the response was half-maximal at 2.05 nM (EC50). Further, the Emax under setting [1] came to 115%.

Take `CNc1nc(C)c(C)c2c1CN(C(=O)C[C@@H]1C[C@H]1c1ccc(Cl)nc1)C2` (racemic) [Example 33, 2-[trans-2-(6-chloropyridin-3-yl)cyclopropyl]-1-[6,7-dimethyl-4-(methylamino)-1,3-dihydro-2H-pyrrolo[3,4-c]pyridin-2-yl]ethanone]: a half-maximal effect (EC50) was put at 5.32 nM. Also, the Emax under setting [1] amounted to 128%.

`CNc1nc(C)c(C)c2c1CN(C(=O)C[C@@H]1C[C@H]1c1cccnc1)C2` (single isomer, unassigned) [Example 10, 1-[6,7-Dimethyl-4-(methylamino)-1,3-dihydro-2H-pyrrolo[3,4-c]pyridin-2-yl]-2-[trans-2-(pyridin-3-yl)cyclopropyl]ethanone] displayed an EC50 of 197 nM. For the same compound, the Emax under setting [1] came out at 114%.

In turn, `Cc1nc(CN(C)C)c2c(c1C)CN(C(=O)CC1CN(c3cccnc3)C1)C2` [Example 14, 1-{4-[(dimethylamino)methyl]-6,7-dimethyl-1,3-dihydro-2H-pyrrolo[3,4-c]pyridin-2-yl}-2-[1-(pyridin-3-yl)azetidin-3-yl]ethanone] showed an EC50 of 18.5 nM. Besides, the Emax under setting [1] turned out to be 99.4%.

In the case of `COc1nc(C)c(C)c2c1CN(C(=O)CC1CN(c3cncnc3)C1)C2` [Example 55, 1-(4-methoxy-6,7-dimethyl-1,3-dihydro-2H-pyrrolo[3,4-c]pyridin-2-yl)-2-[1-(pyrimidin-5-yl)azetidin-3-yl]ethanone], the EC50 was found to be 78.7 nM. Under setting [1], the Emax stood at 96.1%.
